Source: PubChem BioAssay (NCI)
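Grown in 96-well plates, cells were treated for 48 hours with each compound at five concentrations. Insufficient inhibition: endpoint recorded as highest concentration tested. Here, GI50 denotes the concentration required for 50% inhibition of growth. TGI: total growth inhibition.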

Columns and labels:
Assay in all cases: DTP human tumour cell line panel, 48 h; in the data active = GI50 below about 0.43 µM; inactive = the rest
[1] = test system: 786-0 renal
[2] = test system: A498 renal
[3] = test system: A549 NSCLC
[4] = test system: ACHN renal
[5] = test system: BT-549 breast
[6] = test system: CAKI-1 renal
[7] = test system: CCRF-CEM leukemia
[8] = test system: COLO 205 colon
[9] = test system: DU-145 prostate
[10] = test system: EKVX NSCLC
[11] = test system: HCC-2998 colon
[12] = test system: HCT-116 colon
[13] = test system: HCT-15 colon
[14] = test system: HL-60(TB) leukemia
[15] = test system: HOP-62 NSCLC
[16] = test system: HOP-92 NSCLC
[17] = test system: HS 578T breast
[18] = test system: HT29 colon
[19] = test system: IGROV1 ovarian
[20] = test system: K-562 leukemia
[21] = test system: KM12 colon
[22] = test system: LOX IMVI melanoma
[23] = test system: M14 melanoma
[24] = test system: MALME-3M melanoma
[25] = test system: MCF7 breast
[26] = test system: MDA-MB-231 breast
[27] = test system: MDA-MB-435
[28] = test system: MOLT-4 leukemia
[29] = test system: NCI-H226 lung
[30] = test system: NCI-H23 lung
[31] = test system: NCI-H460 lung
[32] = test system: NCI-H522 lung
[33] = test system: NCI/ADR-RES ovarian
[34] = test system: OVCAR-4 ovarian
[35] = test system: OVCAR-5 ovarian
[36] = test system: OVCAR-8 ovarian
[37] = test system: PC-3 prostate
[38] = test system: RPMI-8226 leukemia
[39] = test system: RXF 393 renal
[40] = test system: SF-268 CNS
[41] = test system: SF-295 CNS
[42] = test system: SF-539 CNS
[43] = test system: SK-MEL-2 melanoma
[44] = test system: SK-MEL-28 melanoma
[45] = test system: SK-MEL-5 melanoma
[46] = test system: SK-OV-3 ovarian
[47] = test system: SN12C renal
[48] = test system: SNB-19 CNS
[49] = test system: SNB-75 CNS
[50] = test system: SR leukemia
[51] = test system: SW-620 colon
[52] = test system: T-47D breast
[53] = test system: TK-10 renal
[54] = test system: U251 CNS
[55] = test system: UACC-257 melanoma
[56] = test system: UACC-62 melanoma
[57] = test system: UO-31 renal

Oc1ccc(CSc2nnc(-c3ccncc3)n2-c2ccccc2)c2cccnc12
43 µM: TGI [49]
628 nM: TGI [16]
> 46.5 µM: TGI [30]
> 27.9 µM: TGI [22]
> 31.3 µM: TGI [55]
> 100 µM: TGI [3] | TGI [6] | TGI [7] | TGI [9] | TGI [11] | TGI [12] | TGI [13] | TGI [18] | TGI [20] | TGI [21] | TGI [25] | TGI [27] | TGI [28] | TGI [29] | TGI [32] | TGI [34] | TGI [35] | TGI [36] | TGI [37] | TGI [38] | TGI [40] | TGI [43] | TGI [44] | TGI [47] | TGI [50] | TGI [51] | TGI [53]
5.32 µM: TGI [14]
5.96 µM: TGI [23]
14.4 µM: TGI [31]
> 81.5 µM: TGI [24]
20 µM: TGI [1]
> 38.5 µM: TGI [41]
> 55.6 µM: TGI [26]
70.5 µM: TGI [39]
> 80.4 µM: TGI [8]
12.8 µM: TGI [57]
8.64 µM: TGI [2]
> 45.4 µM: TGI [52]
7.52 µM: TGI [56]
> 84.8 µM: TGI [17]
> 63.1 µM: TGI [5]
31.3 µM: TGI [42]
63.6 µM: TGI [54]
> 26.4 µM: TGI [33]
21.1 µM: TGI [10]
> 89.2 µM: TGI [48]
active: GI50 [12] 376 nM | GI50 [13] 363 nM | GI50 [16] 192 nM | GI50 [20] 363 nM | GI50 [25] 357 nM | GI50 [31] 375 nM | GI50 [32] 369 nM | GI50 [33] 309 nM | GI50 [38] 391 nM | GI50 [47] 385 nM | GI50 [50] 396 nM | GI50 [54] 422 nM
> 57 µM: TGI [19]
> 29.4 µM: TGI [46]
> 28.4 µM: TGI [4]
5.6 µM: TGI [45]
inactive: GI50 [1] 3.4 µM | GI50 [2] 2600 nM | GI50 [3] 1750 nM | GI50 [4] 794 nM | GI50 [5] 596 nM | GI50 [6] 1610 nM | GI50 [7] 513 nM | GI50 [8] 19.2 µM | GI50 [9] 686 nM | GI50 [10] 1400 nM | GI50 [11] 3.14 µM | GI50 [14] 677 nM | GI50 [15] 773 nM | GI50 [17] 473 nM | GI50 [18] 3.87 µM | GI50 [19] 1040 nM | GI50 [21] 2270 nM | GI50 [22] 471 nM | GI50 [23] 765 nM | GI50 [24] 1050 nM | GI50 [26] 1260 nM | GI50 [27] 462 nM | GI50 [28] 720 nM | GI50 [29] 3.49 µM | GI50 [30] 433 nM | GI50 [34] 3.18 µM | GI50 [35] 3.69 µM | GI50 [36] 493 nM | GI50 [37] 735 nM | GI50 [39] 2830 nM | GI50 [40] 804 nM | GI50 [41] 1140 nM | GI50 [42] 769 nM | GI50 [43] 628 nM | GI50 [44] 1790 nM | GI50 [45] 761 nM | GI50 [46] 2320 nM | GI50 [48] 453 nM | GI50 [49] 642 nM | GI50 [51] 542 nM | GI50 [52] 1440 nM | GI50 [53] 3.25 µM | GI50 [55] 2400 nM | GI50 [56] 1750 nM | GI50 [57] 451 nM
16.3 µM: TGI [15]
